Test results from US20200368247A1, “CENICRIVIROC FOR THE TREATMENT OF FIBROSIS” (Tobira Therapeutics, Inc., priority 2014, published 2020).

Assays:
[1] = Phase 1 studies in healthy volunteer subjects; assay type: in vivo, human
From the text: The frequency and magnitude of transaminase elevations observed across these studies was consistent with the pattern described for Phase 1 studies in scientific literature. […] In both studies and at all doses CVC presented a favorable adverse event profile. […] No clinically relevant changes in ECG parameters or changes for any vital sign parameters were observed during the 48-week treatment period. No apparent dose or exposure relationship for adverse events, laboratory abnormalities (including CPK, ALT, AST and bilirubin elevations) or dose-limiting toxicities were observed.

HIV-1 = assay: Study 201 PK/PD Emax model; assay type: in vivo, human
From the text: Drug response was characterized using the following maximum effect (Emax) model:
where E is effect, E0 is the baseline effect (fixed to 0), Imax is the maximum inhibition, C denotes the PK variable (AUC0-24, Cmax, or steady-state concentration [Css]), IC50 is the value of the PK variable which corresponds to 50% of the maximum inhibition and y is the shape parameter which describes the degree of sigmoidicity.

CCCCOCCOc1ccc(-c2ccc3c(c2)/C=C(/C(=O)Nc2ccc([S@@+]([O-])Cc4cncn4CCC)cc2)CCCN3CC(C)C)cc1 [CVC, (S)-8-[4-(2-Butoxyethoxy)phenyl]-1-isobutyl-N-(4-{[(1-propyl-1H-imidazol-5-yl)methyl]sulfinyl}phenyl)-1,2,3,4-tetrahydro-1-benzazocine-5-carboxamide]
generally well tolerated multiple daily doses ([1]; Phase 1, 10 days): up to 200 mg | generally well tolerated single doses ([1]; Phase 1, healthy volunteers): up to 800 mg | percent of the maximum inhibitory effect at average Css (HIV-1; 25 mg): 54.9% | percent of the maximum inhibitory effect at average Css (HIV-1; 50 mg): 79.8% | percent of the maximum inhibitory effect at average Css (HIV-1; 75 mg): 85.9% | percent of the maximum inhibitory effect at average Css (HIV-1; 150 mg): 95.9% | Emax in the PK/PD model (HIV-1 RNA) (HIV-1; Emax model): −1.43 log10 copies/mL
